# Source: ChEMBL document CHEMBL1145170, “Development of a three-dimensional model for the N-methyl-D-aspartate NR2A subunit” (J Med Chem, 2005)
# Key:
# [1] = molecular target: T1, Glutamate receptor ionotropic, NMDA 2A (Rattus norvegicus, UniProt Q00959); test: Inhibition of [3H]Glu binding to rat N-methyl-D-aspartic acid receptor 2A
# [2] = molecular target: T1, Glutamate receptor ionotropic, NMDA 2A; test: Inhibition of [3H]CPP binding to rat N-methyl-D-aspartic acid receptor 2A
# T1 sequence (Q00959 whole entry): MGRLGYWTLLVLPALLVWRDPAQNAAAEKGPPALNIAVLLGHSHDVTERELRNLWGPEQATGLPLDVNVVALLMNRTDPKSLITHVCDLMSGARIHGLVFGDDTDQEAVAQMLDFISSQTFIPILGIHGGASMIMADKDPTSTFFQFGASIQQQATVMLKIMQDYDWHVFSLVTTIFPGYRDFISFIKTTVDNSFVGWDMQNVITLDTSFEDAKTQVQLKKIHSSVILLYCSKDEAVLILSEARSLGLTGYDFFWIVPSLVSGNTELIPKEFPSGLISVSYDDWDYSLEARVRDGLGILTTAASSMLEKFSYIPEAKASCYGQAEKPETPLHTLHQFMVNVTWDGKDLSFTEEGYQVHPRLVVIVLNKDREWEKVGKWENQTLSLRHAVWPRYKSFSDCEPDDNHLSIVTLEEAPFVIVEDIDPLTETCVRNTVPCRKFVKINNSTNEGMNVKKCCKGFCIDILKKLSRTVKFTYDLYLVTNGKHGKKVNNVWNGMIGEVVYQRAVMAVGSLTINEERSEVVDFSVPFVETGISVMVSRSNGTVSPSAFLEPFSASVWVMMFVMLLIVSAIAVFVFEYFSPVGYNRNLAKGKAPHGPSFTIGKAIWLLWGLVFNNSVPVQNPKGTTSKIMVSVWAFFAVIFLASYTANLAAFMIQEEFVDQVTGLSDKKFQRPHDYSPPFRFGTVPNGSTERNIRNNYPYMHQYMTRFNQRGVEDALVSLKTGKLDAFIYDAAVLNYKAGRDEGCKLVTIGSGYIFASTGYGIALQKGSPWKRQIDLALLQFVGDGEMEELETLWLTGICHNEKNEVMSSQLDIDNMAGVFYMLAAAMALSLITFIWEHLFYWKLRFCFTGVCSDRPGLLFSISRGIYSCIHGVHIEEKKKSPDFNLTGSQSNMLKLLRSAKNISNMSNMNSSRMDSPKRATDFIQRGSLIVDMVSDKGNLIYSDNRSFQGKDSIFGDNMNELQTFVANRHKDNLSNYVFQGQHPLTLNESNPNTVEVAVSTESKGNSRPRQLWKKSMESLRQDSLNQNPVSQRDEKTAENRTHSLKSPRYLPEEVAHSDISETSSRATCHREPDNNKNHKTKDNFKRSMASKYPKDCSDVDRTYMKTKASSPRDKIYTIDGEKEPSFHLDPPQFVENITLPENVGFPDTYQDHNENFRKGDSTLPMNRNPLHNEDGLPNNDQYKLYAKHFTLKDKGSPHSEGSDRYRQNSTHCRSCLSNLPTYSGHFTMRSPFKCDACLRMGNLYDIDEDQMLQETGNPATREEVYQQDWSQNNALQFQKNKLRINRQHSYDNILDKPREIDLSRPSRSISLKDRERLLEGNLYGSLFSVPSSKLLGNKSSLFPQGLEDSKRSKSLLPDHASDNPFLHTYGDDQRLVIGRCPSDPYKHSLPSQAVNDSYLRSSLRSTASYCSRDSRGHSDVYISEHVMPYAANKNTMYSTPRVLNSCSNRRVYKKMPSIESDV
SMILES,IC50 [1] [µM],IC50 [2] [µM]
CCC/C(=C\[C@@H](N)C(=O)O)CP(=O)(O)O,0.23,–
N[C@H](CC(=O)CP(=O)(O)O)C(=O)O,–,0.11
N[C@@H](CCCP(=O)(O)O)C(=O)O,1.5,0.29
C/C(=C\[C@@H](N)C(=O)O)CP(=O)(O)O [CGP-37849],0.22,0.035
"O=C(O)[C@@H]1C[C@H](CP(=O)(O)O)CCN1 (single isomer, unassigned) [SELFOTEL]",0.84,0.095
